This is an account of results in patent US8846937B2, “Mono quaternary ammonium salts and methods for modulating neuronal nicotinic acetylcholine receptors” (University of Kentucky Research Foundation, priority 2006, dated 2014).

Assay [1] concerns the target T1, Rat Striatal Nicotinic Receptors ([^3H]NIC binding) (Rattus norvegicus, UniProt P09483+P12390).
T1 construct: Whole brain, excluding cortex and cerebellum, was homogenized; from tissue; host or cells: rat brain membranes (whole brain excluding cortex and cerebellum)
As to the kind of experiment: Inhibition of [^3H]nicotine binding to brain membranes. The following applies: 3 nM [^3H]NIC; for inhibition at 0.1 µM: % inhibition at 100 nM analog, nonspecific 10 μM nicotine. How it is done:
(§1) Test compounds of Formula (I), representing the mono quaternary nicotine analogs of the present invention, were evaluated to determine the effect of a test compound on nicotine-binding and methyllycaconitine-binding mediated by nicotine acetylcholine receptors.
(§2) Homogenate was centrifuged (25,000 g, 15 min, 4° C.). Pellets were resuspended in 20 volumes of buffer and incubated at 37° C., for 10 min, cooled to 4° C. and centrifuged (25,000 g, 15 min, 4° C.). Pellets were resuspended and centrifuged using the same conditions. […] Upon use, final pellets were resuspended in ˜20 volumes of assay buffer. Samples (250 μl) contained 100-140 μg of membrane protein, 3 nM [^3H]nicotine or 3 nM [^3H]methyllycaconitine (MLA), and test compounds of Formula (I) (100 nM) in assay buffer containing 50 mM Tris. A control sample absent test compounds of Formula (I) was also prepared. In the [^3H]nicotine-binding assay and [^3H]MLA-binding assay, nonspecific-binding was determined in the presence of 10 μM nicotine and 10 μM MLA, respectively. Incubations proceeded for 60 min at a room temperature using 96-well plates, and were terminated by harvesting on Unifilter-96 GF/B filter plates presoaked in 0.5% polyethylenimine, using a Packard FilterMate harvester. After washing 5 times with 350 μl ice-cold assay buffer, the filter plates were dried (60 min, 4° C.), bottom-sealed, and filled with Packard's MicroScint 20 cocktail (40 μl/well). After 60 min, filter plates were top-sealed, and levels of radioactivity were determined using a Packard TopCount. Protein concentrations were determined using the Bradford dye-binding procedure using bovine serum albumin as a standard protein.
Specific binding in the [^3H]NIC binding assay is calculated as the difference between the total binding of 3 nM [^3H]NIC and nonspecific binding in the presence of 10 μM cold nicotine. […] Analog-induced inhibition of nicotine-evoked [^3H]DA release is calculated as a percent of that in the absence of the mono quaternary ammonium analog. ND indicates not determined.

Assay [2] concerns nicotinic receptors, NIC-evoked [^3H]DA release from rat striatal slices. Kind of assay: Inhibition of nicotine-evoked [^3H]dopamine release from superfused rat striatal slices. The following applies: 1 h, 100 nM analog superfused 60 minutes prior to NIC (10 μM). The format is cell-based. On the procedure: Rat striatal slices (500 μm thickness, 6-8 mg wet weight) were incubated for 30 minutes in Krebs buffer (118 mM NaCl, 4.7 mM KCl, 1.2 mM MgCl2, 1.0 mM NaH2PO4, 1.3 mM CaCl2, 11.1 mM glucose, 25 mM NaHCO3, 0.11 mM L-ascorbic acid, and 0.004 mM disodium EDTA at pH 7.4, and saturated with 95% O2/5% CO2) in a metabolic shaker at 34° C. Slices were rinsed with 15 mL of fresh buffer, and were incubated for an additional 30 minutes in fresh buffer containing 0.1 μM [^3H]dopamine (DA; 6 slices/3 mL). Subsequently, slices were rinsed with 15 mL of fresh buffer and transferred to a glass superfusion chamber. Slices were superfused (1.0 mL/min) for 60 minutes with Krebs buffer containing nomifensine (10 μM) and pargyline (10 μM), and maintained at 34° C., pH 7.4, with continual aeration (95% O2/5% CO2). Two five minute samples (5 mL each) were collected to determine basal outflow of [^3H]DA. The test compounds of Formula (I) were added to the superfusion buffer after the collection of the second sample, and were maintained in the buffer until 12 consecutive five minute samples were collected. Subsequently, S-(−)-nicotine (10 μM) was added to the buffer, and an additional 12 consecutive five minute samples were collected. At the end of the experiment, each slice was solubilized, and the [^3H]content of the tissue determined.
Radioactivity in the superfusate and tissue samples was determined by liquid scintillation spectroscopy. Fractional release of tritium collected in each sample was divided by the total tritium present in the tissue at the time of sample collection, and the fractional release of tritium collected was expressed as a percentage of total tritium. Basal [^3H]outflow was calculated from the average of the tritium collected in the two five minute samples just before addition of a test compound of Formula (I). The sum of the increase in collected tritium resulting from either exposure to a test compound of Formula (I), or exposure to S(−) nicotine in the absence and presence of a test compound of Formula (I) equaled total [^3H]overflow. [^3H]Overflow was calculated by subtracting the [^3H]outflow during an equivalent period of pre-stimulation from the values in samples collected during and after drug exposure. Inasmuch as the radio-labeled compounds were not separated and identified, the tritium collected in superfusate is referred to as either [^3H]outflow or [^3H]overflow, rather than as [^3H]DA. [^3H]Overflow primarily represents [^3H]DA in the presence of nomifensine and pargyline in the superfusion buffer.
The quaternary analogs of Formula (I) were also evaluated for their ability to inhibit NIC-evoked [^3H]DA release. In these experiments, the striatal slices were superfused for 60 minutes with 100 nM concentration of the quaternary analogs prior to NIC (10 μM) exposure. Antagonist activity was evaluated by comparing the NIC-evoked [^3H]overflow in the absence and presence of the analogs. The relative order of potency of the quaternary analogs of Formula (I) for inhibition of NIC-evoked [^3H]DA release from rat striatal slices is illustrated in Table 1.
^aData are % inhibition at 100 nM concentration of the mono quaternary analogs for at least 1-3 independent experiments; with the exception of when a Ki value in μM is provided, in which case a full concentration effect was evaluated. Specific binding in the [^3H]NIC binding assay is calculated as the difference between the total binding of 3 nM [^3H]NIC and nonspecific binding in the presence of 10 μM cold nicotine. Specific binding for the [^3H]MLA binding assay is calculated as the difference between the total binding of 2.5 nM [^3H]MLA to the receptors alone and its nonspecific binding in the presence of 1 μM cold MLA. Analog-induced inhibition of nicotine-evoked [^3H]DA release is calculated as a percent of that in the absence of the mono quaternary ammonium analog. ND indicates not determined.

Assay [3] deals with T2, Rat Striatal Nicotinic Receptors ([^3H]MLA binding) (Rattus norvegicus, UniProt Q05941).
T2 construct: Whole brain, excluding cortex and cerebellum, was homogenized; from tissue; host or cells: rat brain membranes (whole brain excluding cortex and cerebellum)
Kind of assay: Inhibition of [^3H]methyllycaconitine (MLA) binding to brain membranes. The following applies: for inhibition at 0.1 µM: % inhibition at 100 nM analog, 2.5 nM [^3H]MLA, nonspecific 1 μM MLA (footnote). How it is done: as §1
as §2, with “Samples (250 μl) contained 100-140 μg of membrane protein, 3 nM [^3H]nicotine or 3 nM [^3H]methyllycaconitine (MLA), and test compounds of Formula (I) (100 nM) in assay buffer containing 50 mM Tris.” left out, “In the [^3H]nicotine-binding assay and [^3H]MLA-binding assay, nonspecific-binding was determined in the presence of 10 μM nicotine and 10 μM MLA, respectively.” left out, “protein. […]” for “protein.”

The structures appear in SMILES notation. Bounds are passed on as bounds.

T2 sequence (Q05941 23-502): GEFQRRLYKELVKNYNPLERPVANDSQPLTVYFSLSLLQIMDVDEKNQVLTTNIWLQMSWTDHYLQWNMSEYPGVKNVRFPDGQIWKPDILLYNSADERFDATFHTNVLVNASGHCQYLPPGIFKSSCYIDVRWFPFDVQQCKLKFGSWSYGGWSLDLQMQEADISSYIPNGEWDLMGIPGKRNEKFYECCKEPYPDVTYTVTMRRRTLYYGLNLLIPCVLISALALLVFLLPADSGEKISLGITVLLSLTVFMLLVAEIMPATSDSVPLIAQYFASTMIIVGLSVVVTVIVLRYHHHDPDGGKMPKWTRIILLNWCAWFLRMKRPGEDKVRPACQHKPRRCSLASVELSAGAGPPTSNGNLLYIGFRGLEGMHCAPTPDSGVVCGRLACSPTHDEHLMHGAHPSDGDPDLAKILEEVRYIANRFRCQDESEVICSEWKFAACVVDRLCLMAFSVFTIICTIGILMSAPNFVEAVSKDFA
T1 sequence (P09483 31-630): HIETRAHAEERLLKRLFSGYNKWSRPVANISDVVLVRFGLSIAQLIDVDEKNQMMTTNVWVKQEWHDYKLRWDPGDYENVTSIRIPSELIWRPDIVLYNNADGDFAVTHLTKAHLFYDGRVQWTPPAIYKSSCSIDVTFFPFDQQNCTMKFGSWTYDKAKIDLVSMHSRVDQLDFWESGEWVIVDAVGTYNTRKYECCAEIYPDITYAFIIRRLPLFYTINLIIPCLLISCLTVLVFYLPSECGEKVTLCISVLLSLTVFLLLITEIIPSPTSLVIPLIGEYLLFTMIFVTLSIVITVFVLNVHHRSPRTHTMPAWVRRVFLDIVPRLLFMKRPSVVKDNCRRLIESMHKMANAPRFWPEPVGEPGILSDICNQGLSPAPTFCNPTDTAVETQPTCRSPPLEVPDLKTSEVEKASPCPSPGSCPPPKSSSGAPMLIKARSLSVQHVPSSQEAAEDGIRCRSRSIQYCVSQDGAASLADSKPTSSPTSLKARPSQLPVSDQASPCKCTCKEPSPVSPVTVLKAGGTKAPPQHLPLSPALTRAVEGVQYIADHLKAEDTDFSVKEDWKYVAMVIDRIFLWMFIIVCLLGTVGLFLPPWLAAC
T1 sequence (P12390 25-500): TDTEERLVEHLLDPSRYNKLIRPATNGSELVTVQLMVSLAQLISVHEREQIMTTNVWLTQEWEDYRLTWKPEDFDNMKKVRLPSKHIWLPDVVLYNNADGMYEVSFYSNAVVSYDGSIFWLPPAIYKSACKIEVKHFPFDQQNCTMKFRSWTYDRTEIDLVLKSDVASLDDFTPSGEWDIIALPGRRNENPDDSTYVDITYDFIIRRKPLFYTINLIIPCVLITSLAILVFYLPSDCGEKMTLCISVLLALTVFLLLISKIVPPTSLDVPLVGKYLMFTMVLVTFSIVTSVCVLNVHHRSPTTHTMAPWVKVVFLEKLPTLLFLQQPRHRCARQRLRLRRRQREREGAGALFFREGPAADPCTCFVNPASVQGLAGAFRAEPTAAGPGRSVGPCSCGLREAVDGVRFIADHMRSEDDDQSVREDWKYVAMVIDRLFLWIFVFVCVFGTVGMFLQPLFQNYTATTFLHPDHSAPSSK

The inhibition is how much of the control response was suppressed. Low values mean a weak effect, high ones a strong effect. Regarding `C(#Cc1ccc(-c2ccccc2)cc1)CCC[n+]1ccccc1`, the inhibition at 0.1 µM in assay [1] was found to be 2%; in assay [2], 34%; in assay [3], 6%.

As for `CCCCc1ccc(CCCC[n+]2ccc(C)cc2)cc1`, the figures for the inhibition at 0.1 µM in assay [1], in assay [2] and in assay [3] were 5%, 58% and 0%, respectively.

The Ki is the equilibrium dissociation constant of an inhibitor or competing ligand from its target. Read a high Ki as lower affinity. `Cc1ccc[n+](CCCCCCCCc2ccccc2)c1`: the Ki is above 100 µM in assay [1] (full concentration effect) and above 100 µM in assay [3] (full concentration effect, 2.5 nM [^3H]MLA (footnote)). The same compound came in with an inhibition at 0.1 µM in assay [2] of 0%.

Regarding `CCCCc1ccc(CCCC[n+]2cccc(C)c2)cc1`, the inhibition at 0.1 µM in assay [1] is 4%; in assay [2], 33%; in assay [3] it was 2%.

For the compound `Cc1cc[n+](CCCC#Cc2ccc(-c3ccccc3)cc2)cc1`, the inhibition at 0.1 µM was 0% in assay [1], 40% in assay [2] and 3% in assay [3].

In the case of `Cc1cc[n+](CCCCCCCCc2ccccc2)c(C)c1`, the figures for the inhibition at 0.1 µM in assay [1], in assay [2] and in assay [3] were 0%, 14% and 9%, respectively.

Consider `CCCCc1ccc(CCCC[n+]2ccc(C)cc2C)cc1`, for which the values for the inhibition at 0.1 µM in assay [1], in assay [2] and in assay [3] were 6%, 19% and 0%, respectively.

For `Cc1cc[n+](CCCC#Cc2ccc(-c3ccccc3)cc2)cc1C`, the inhibition at 0.1 µM in assay [1] was 0%; in assay [2], 20%; in assay [3], 8%.

Turning to `CN1CCC[C@H]1c1ccc[n+](CCCC#Cc2ccc(-c3ccccc3)cc2)c1`, the inhibition at 0.1 µM in assay [1] worked out at 20%; in assay [2], 47%; in assay [3], 6%.

Regarding `CCCCc1ccc[n+](CCCC#Cc2ccc(-c3ccccc3)cc2)c1`, the inhibition at 0.1 µM was determined as 0% in assay [1], 50% in assay [2] and 9% in assay [3].

Consider `Cc1cc[n+](CCCCCCCCCCCCCc2cccnc2)cc1C`, for which the inhibition at 0.1 µM in assay [1] came out at 3%; in assay [2], 20%; in assay [3], 0%.

Turning to `CCCCc1ccc(C#CCC[n+]2ccc(C)cc2)cc1`, the inhibition at 0.1 µM came out at 6% in assay [1], 11% in assay [2] and 3% in assay [3].
